Earlier results as cited in patent US20180008675A1, “USE OF URODILATING FOR PREPARING A MEDICAMENT FOR TREATMENT OF CARDIOVASCULAR, RENAL, PULMONARY, AND NEURONAL SYNDROMES WHILE AVOIDING A REBOUND” (CARDIORENTIS AG, priority 2010, published 2018).

Columns and labels:
[1] = system: patients with chronic congestive heart failure; settings: 10-hour infusion, 15 ng/kg/min
[2] = system: patients with chronic congestive heart failure / acute decompensated heart failure
dogs = dogs (Riegger et al., 1990)

Substance: urodilatin
- central venous pressure (CVP) ([1]; NYHA III chronic congestive heart failure (Eisner et al., 1995)): increases slightly already after 5 hours of infusion
- urine flow ([1]; chronic congestive heart failure (Eisner et al., 1995)): loss of action after 8 hours of infusion
- changes of the cardiac index (CI) ([2]; 15 and 30 ng/kg/min (Mitrovic et al., 2006)): significant increase
- changes of the baseline in pulmonary capillary wedge pressure (PCWP) ([2]; 15 and 30 ng/kg/min, compared with the placebo group (Mitrovic et al., 2006)): significant reductions
- pulmonary capillary wedge pressure (PCWP), loss of effect during infusion ([2]; after 6 to 8 hours of infusion (Mitrovic et al., 2006, FIG. 2A)): slight increase of PCWP
- cardiac index (CI), loss of effect during infusion ([2]; after 6 to 8 hours of infusion (Mitrovic et al., 2006, FIG. 2C)): partial drop of CI
- symptoms, morbidity and mortality ([2]; all doses, acute decompensated heart failure (Mitrovic et al., 2005 and 2006)): significantly improved
- effect compared to other natriuretic peptides, such as ANP (dogs): better effect in dogs
